Publication PMC7582714, “Cooperative Binding of the Cationic Porphyrin Tris-T4 Enhances Catalytic Activity of 20S Proteasome Unveiling a Complex Distribution of Functional States” (International Journal of Molecular Sciences, 2020)

Tests used:
h20S = conditions: cited from earlier work
[1] = system: T1, yeast α3ΔN mutant of 20S proteasome; assay: 20S proteasome chymotryptic-like activity assay (Suc-LLVY-AMC), steady-state kinetics vs Tris-T4 concentration; assay type: biochemical
T1 construct: Yeast CP 20S wild-type and the mutant form, α3ΔN, were purified as previously reported; made in house; host or cells: yeast
Excerpt: (§1) Then, we have extended the investigation on the functional modulation of the chymotryptic-like activity by Tris-T4 porphyrin also to wt y20S proteasome and to its mutant α3ΔN, which is characterized by a significant enhancement of the enzymatic activity, ascribed to disruption of the gate closing mechanism.
(§2) In addition, for the sake of clarity, in Scheme 1 some of these parameters are reported as interaction ratios, namely α = KAU/KAL, β = KBU/KBL, γ = KBU/KAU, and δ = KBL/KAL. Finally, σA and σB refer to the eventual effect of Tris-T4 binding on the catalytic rate-limiting step kcat of either state A and/or state B (see Scheme 1). […] (1) kobscat=kcatA⋅(1+KAL⋅[Tris_T4])^n+LL⋅kcatB⋅(1+KBL⋅[Tris_T4])^n/(1+KAL⋅[Tris_T4])^n+LL⋅(1+KBL⋅[Tris_T4])^n (2) Kobsm=K0m⋅(1+KAU⋅[Tris_T4])^n+LU⋅(1+KBI⋅[Tris_T4])^m⋅(1+KBU⋅[Tris_T4])^n/(1+KAL⋅[Tris_T4])^n+LL⋅(1+KBL⋅[Tris_T4])^n (3) kobscat/Kobsm=kcatA/KmA⋅(1+KAU⋅[Tris_T4])^n+LU⋅kcatB/KmB⋅(1+KBI⋅[Tris_T4])^m⋅(1+KBU⋅[Tris_T4])^n/(1+KAU⋅[Tris_T4])^n+LU⋅(1+KBI⋅[Tris_T4])^m⋅(1+KBU⋅[Tris_T4])^n
(§3) 20S proteasome activity assays were performed in vitro in the assay buffer (i.e., 50 mM TrisHCl, pH 8.0) by mixing 20S proteasome (2 nM) with increasing concentrations (0.1–10 µM) of Tris-T4 incubating for 30 min at 37 °C. Then, varying concentrations (between 5 µM and 100 µM) of fluorogenic peptide were added in a 384 multiwell black plate. A minimum of three replicates were performed for each data point. […] Data relative to CP activities at different substrate concentrations have been analyzed by a double reciprocal Lineweaver–Burk plot, according to the following equation:(4) [E0]/v=Km/±kcatx 1/[S]+1/kcat where (E0) is the enzyme concentration, ν is the observed velocity (expressed as moles of substrate cleaved per time interval unit), (S) is the substrate concentration, Km is the Michaelis–Menten equilibrium constant, referring to the affinity for substrate, and kcat is the velocity of the rate-limiting step. All curve fitting and statistical analysis were carried out using the non-linear fitting tool (NLFit) and MatLab (The Math works Inc., Natick, MA, USA). The parametric data fitting was based on nonlinear regression and the method of least squares. Model discrimination and choice was based on the goodness of fit. The goodness of fit was evaluated by visual examination of the fitted curves, 95% confidence bounds for the fitted coefficients and statistical analysis for determining the square of the multiple correlation coefficient (R^2).The Gibbs free energy difference (ΔG^0 = −RT lnK) was calculated using the values of the equilibrium constants reported in Table 1 and corresponds to −ΔG^0 of the considered conformational transition equilibrium as depicted in Scheme 1.

human 20S proteasome = system: T2, human 20S proteasome; assay: as above; assay type: biochemical
T2 construct: purchased Boston Biochem
Excerpt: In order to better characterize the effect of Tris-T4 on the functional properties of the 20S proteasome, we have carried out an investigation on the steady-state chymotryptic-like activity of h20S as a function of Tris-T4 concentration, employing different substrate concentrations.
as §2, §3

[2] = system: purified rabbit 20S proteasome; parameters: method as in PMID 22642538; conditions: 100 µM fluorogenic substrate; apparent inhibition; read-out: IC50, chymotryptic-like activity; cited from earlier work
h20S proteasome = system: T3, h20S proteasome; assay: STD and WaterLOGSY NMR interaction study; assay type: binding, human; conditions: Tris-T4 175 μM, 20S 860 nM; 50 mM Hepes, 100 mM NaCl, 1mM DTT
T3 construct: purchased Boston Biochem
Description: For NMR interaction studies, Saturation Transfer Difference (STD) and WaterLogsy (WL) experiments were employed to derive the ligand binding epitope.
As a starting point, the Tris-T4 structure has been analyzed by ^1H NMR spectroscopy in the buffer (50 mM Hepes, 100 mM NaCl and 1mM DTT). The ^1H chemical shift assignments of Tris-T4 are reported in Supplementary Figure S1. Both STD- and WL-NMR spectra of Tris-T4 were acquired in a 200-fold excess over the h20S proteasome.
Then, to identify the ligand moiety more closely interacting with the protein, we evaluated and compared the saturation effects of the individual Tris-T4 proton resonances (ISTD = I0 − Isat). The signal showing the largest ISTD/I0 value, the para phenyl proton, was normalized to 100% (Figure 7). The relative degree of saturation of the individual protons, normalized to that of the para phenyl proton, was then used to compare the STD effect.

wt y20S proteasome = system: T4, wt y20S proteasome; assay: 20S proteasome chymotryptic-like activity assay (Suc-LLVY-AMC), steady-state kinetics vs Tris-T4 concentration; assay type: biochemical, yeast
T4 construct: Yeast CP 20S wild-type and the mutant form, α3ΔN, were purified as previously reported; made in house; host or cells: yeast
Excerpt: as §1, §2, §3

[3] = Michaelis-Menten constant in state A
[4] = state A, substrate-bound ES complex
[5] = state B, substrate-bound ES complex
[6] = Michaelis-Menten constant in state B (stabilized by Tris-T4)

T1 sequence (P23639 whole entry, stated change not applied): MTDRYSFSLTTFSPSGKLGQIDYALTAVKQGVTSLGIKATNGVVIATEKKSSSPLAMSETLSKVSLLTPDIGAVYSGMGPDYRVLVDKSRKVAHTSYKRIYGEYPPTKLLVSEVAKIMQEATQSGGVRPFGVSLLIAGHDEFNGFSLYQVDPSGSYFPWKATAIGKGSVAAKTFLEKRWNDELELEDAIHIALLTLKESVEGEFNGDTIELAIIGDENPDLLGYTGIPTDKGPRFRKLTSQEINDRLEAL
T1 sequence (P32379 whole entry, stated change not applied, further chain): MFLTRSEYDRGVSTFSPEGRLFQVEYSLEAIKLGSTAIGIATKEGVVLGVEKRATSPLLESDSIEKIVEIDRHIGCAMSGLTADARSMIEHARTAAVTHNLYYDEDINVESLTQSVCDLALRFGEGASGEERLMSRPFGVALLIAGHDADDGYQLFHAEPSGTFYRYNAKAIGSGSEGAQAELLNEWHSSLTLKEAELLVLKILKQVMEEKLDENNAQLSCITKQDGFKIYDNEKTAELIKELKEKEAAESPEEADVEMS
T1 sequence (P40303 whole entry, stated change not applied, further chain): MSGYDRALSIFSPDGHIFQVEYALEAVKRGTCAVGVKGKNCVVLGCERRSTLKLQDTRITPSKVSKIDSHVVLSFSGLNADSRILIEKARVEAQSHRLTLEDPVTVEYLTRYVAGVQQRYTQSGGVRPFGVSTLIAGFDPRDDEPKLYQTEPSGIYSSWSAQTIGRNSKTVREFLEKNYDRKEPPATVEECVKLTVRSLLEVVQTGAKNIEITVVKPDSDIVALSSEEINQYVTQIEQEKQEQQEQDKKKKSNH
T1 sequence (P40302 whole entry, stated change not applied, further chain): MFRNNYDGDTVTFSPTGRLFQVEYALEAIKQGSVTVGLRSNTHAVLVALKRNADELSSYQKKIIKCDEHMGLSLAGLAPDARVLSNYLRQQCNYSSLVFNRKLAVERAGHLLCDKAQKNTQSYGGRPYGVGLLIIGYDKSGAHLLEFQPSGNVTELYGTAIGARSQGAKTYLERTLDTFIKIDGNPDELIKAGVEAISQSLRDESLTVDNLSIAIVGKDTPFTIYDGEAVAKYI
T1 sequence (P21243 whole entry, stated change not applied, further chain): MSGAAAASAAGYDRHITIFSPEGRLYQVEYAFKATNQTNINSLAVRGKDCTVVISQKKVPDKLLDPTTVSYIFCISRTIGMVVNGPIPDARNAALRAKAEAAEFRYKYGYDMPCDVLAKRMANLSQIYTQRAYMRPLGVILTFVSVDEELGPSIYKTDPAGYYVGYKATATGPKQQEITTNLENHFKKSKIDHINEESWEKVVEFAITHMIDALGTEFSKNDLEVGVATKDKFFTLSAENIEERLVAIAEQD

C[n+]1ccc(-c2c3nc(c(-c4cc[n+](C)cc4)c4ccc([nH]4)c(-c4cc[n+](C)cc4)c4nc(c(-c5cc[n+](C)cc5)c5ccc2[nH]5)C=C4)C=C3)cc1 [H2T4, meso-tetrakis (4-N-methylpyridyl)-porphyrin]
mode of action on h20S (h20S): competitive inhibitor

C[n+]1ccc(-c2c3nc(c(-c4cc[n+](C)cc4)c4ccc([nH]4)c(-c4cc[n+](C)cc4)c4nc(c(-c5ccccc5)c5ccc2[nH]5)C=C4)C=C3)cc1 [Tris-T4, 5-(phenyl)-10,15,20-(tri N-methyl-4-pyridyl) porphyrin]
m, number of competitive inhibitory sites ([1]; Eq 1-3): 1
n, number of concerted allosteric binding sites for Tris-T4 ([1]; Eq 1-3): 2
KmA [1, 3]: 4.1(± 0.6) × 10^−3 M
KmB ([1]; Michaelis-Menten constant in state B): 1.07(± 0.27) × 10^−2 M
effect on chymotryptic-like activity ([1]; Tris-T4 0-5 μM, no activation): only the competitive inhibitory effect is observed
LU, equilibrium constant between A and B ([1]; absence of the substrate): 3.9(± 0.6) × 10^−2
KAU, affinity constant for Tris-T4 ([1]; state A, absence of substrate): 3.0(± 0.5) × 10^5 M^−1
KAL, affinity constant for Tris-T4 [1, 4]: 1.2(± 0.4) × 10^5 M^−1
kcatA ([1]; state A, same kcat imposed for both states): 49.5 ± 5.6 s⁻¹
KBI, affinity constant for Tris-T4 to the inhibitory competitive site ([1]; state B): 2.5(± 0.4) × 10^6 M^−1
KBU, affinity constant for Tris-T4 ([1]; state B, absence of substrate): 9.0(± 1.8) × 10^7 M^−1
KBL, affinity constant for Tris-T4 [1, 5]: 1.3(± 0.3) × 10^8 M^−1
kcatB ([1]; state B, same kcat imposed for both states): 49.5 ± 5.6 s⁻¹
LL, equilibrium constant between A and B ([1]; substrate-bound ES complex): 1.5(± 1.0) × 10^−2
effect on chymotryptic-like activity (human 20S proteasome; (Substrate) < 25 µM, Tris-T4 0-10 μM): activator
m, number of competitive inhibitory sites (human 20S proteasome; Eq 1-3): 0
KmA (human 20S proteasome; [3]): 1.95(± 0.37) × 10^−3 M
KmB (human 20S proteasome; [6]): 1.5(± 0.3) × 10^−4 M
LU, equilibrium constant between A and B (human 20S proteasome; absence of the substrate, floating parameter of the two-state model): 3.0(± 0.5) × 10^−6 (3)
Tris-T4 concentration at which activation is essentially completed (human 20S proteasome; chymotryptic-like activity): 3 µM
n, number of concerted allosteric binding sites for Tris-T4 (human 20S proteasome; minimum value, Eq 1-3): 3
kcatA (human 20S proteasome; rate-limiting step in state A, fit of Eq 1-3, substrate ≤ 25 μM, pH 8.0, 37 °C): 11.5 ± 1.3 s⁻¹
kcatB (human 20S proteasome; rate-limiting step in state B (stabilized by Tris-T4), fit of Eq 1-3): 0.32 ± 0.05 s⁻¹
KAU, affinity constant for Tris-T4 (human 20S proteasome; state A, absence of substrate): 2.0(± 0.3) × 10^4 M^−1
KAL, affinity constant for Tris-T4 (human 20S proteasome; [4]): 1.2(± 0.3) × 10^4 M^−1
KBU, affinity constant for Tris-T4 (human 20S proteasome; state B, absence of substrate): 8.2(± 1.2) × 10^7 M^−1
KBL, affinity constant for Tris-T4 (human 20S proteasome; [5]): 1.35(± 0.28) × 10^8 M^−1
LL, equilibrium constant between A and B (human 20S proteasome; substrate-bound ES complex): 3.9(± 0.6) × 10^−5 (3)
free energy contribution of each Tris-T4 binding step (RTln(KBL/KAL)) (human 20S proteasome; substrate-bound state): 5.71 kcal/mol
free energy contribution of each Tris-T4 binding step (RTln(KBU/KAU)) (human 20S proteasome; substrate-free conformation): 5.11 kcal/mol
free energy for the A → B transition in favor of the B functional state (RTlnLUγ^3) (human 20S proteasome; substrate-free porphyrin triple-bound enzyme): 7.5 kcal/mol
IC50 [2]: 920 ± 60 nM
STD and WL-NMR spectra, interaction (h20S proteasome): positive signals
m, number of competitive inhibitory sites (wt y20S proteasome; Eq 1-3): 1
n, number of concerted allosteric binding sites for Tris-T4 (wt y20S proteasome; Eq 1-3): 2
KmA (wt y20S proteasome; [3]): 1.17(± 0.22) × 10^−4 M
KmB (wt y20S proteasome; [6]): 9.04(± 1.82) × 10^−6 M
effect on chymotryptic-like activity at higher Tris-T4 concentrations (wt y20S proteasome; above 1 μM Tris-T4, overwhelms the activation): competitive inhibitory effect
LU, equilibrium constant between A and B (wt y20S proteasome; absence of the substrate): 6.0(± 1.0) × 10^−4 (2)
Tris-T4 concentration at which activation is essentially completed (wt y20S proteasome; chymotryptic-like activity): 1 µM
kcatA (wt y20S proteasome; rate-limiting step in state A, fit of Eq 1-3): 0.95 ± 0.15 s⁻¹
kcatB (wt y20S proteasome; rate-limiting step in state B (stabilized by Tris-T4)): 0.17 ± 0.03 s⁻¹
KAU, affinity constant for Tris-T4 (wt y20S proteasome; state A, absence of substrate): 3.0(± 0.5) × 10^5 M^−1
KBI, affinity constant for Tris-T4 to the inhibitory competitive site (wt y20S proteasome; state B): 2.5(± 0.4) × 10^6 M^−1
KBU, affinity constant for Tris-T4 (wt y20S proteasome; state B, absence of substrate): 9.0(± 1.8) × 10^7 M^−1
KBL, affinity constant for Tris-T4 (wt y20S proteasome; [5]): 1.3(± 0.3) × 10^8 M^−1
LL, equilibrium constant between A and B (wt y20S proteasome; substrate-bound ES complex): 7.8(± 1.5) × 10^−3 (2)

C[n+]1ccc(-c2ccc(-c3c4nc(c(-c5ccc(-c6cc[n+](C)cc6)cc5)c5ccc([nH]5)c(-c5ccc(-c6cc[n+](C)cc6)cc5)c5nc(c(-c6ccc(-c7cc[n+](C)cc7)cc6)c6ccc3[nH]6)C=C5)C=C4)cc2)cc1 [pTMPyPP4, meso-tetrakis (4-N-methylphenyl-pyridyl)-porphyrin]
mode of action on h20S (h20S): allosteric inhibitor
